Data taken from patent publication US20240247080A1, “GLP1/GIP/NPY2 RECEPTOR TRIPLE AGONISTS” (Boehringer Ingelheim International GmbH, priority 2022, published 2024).
Like-named read-outs stand apart in the source and are kept apart here. Starred links: 1 amine or outer side, 2 acyl side, 3 side chain; linkers in the order of their positions; H or OH if unused. Positions of bridges follow the written chain, without caps; N, C: chain ends. Non-standard residues stand in square brackets, D forms with d. Groups on a side chain read outwards from the residue. Chains are numbered I, II in the order given. No end group written: not given here. *: point of attachment. C20 diacid = O=C(O)CCCCCCCCCCCCCCCCCCC(=O)*; C18 diacid = O=C(O)CCCCCCCCCCCCCCCCC(=O)*; γGlu = O=C(O)[C@H](CCC(=O)[*:2])N[*:1]; εLys = N[C@@H](CCCCN[*:1])C(=O)[*:2]; Aib = CC(C)(N)C(=O)O

Assays:
Assay type in all cases: cell-based
Details in all cases: CreLuc reporter gene assay
[1] = molecular target: T1, hNPY2R (Homo sapiens, UniProt P49146); assay: hNPY2R CreLuc reporter gene assay in 0.5% and 100% plasma
T1 construct: expressed in transfected cells; host or cells: HEK-293 cells carrying a CRE-luciferase reporter gene
T1 sequence (P49146 1-381): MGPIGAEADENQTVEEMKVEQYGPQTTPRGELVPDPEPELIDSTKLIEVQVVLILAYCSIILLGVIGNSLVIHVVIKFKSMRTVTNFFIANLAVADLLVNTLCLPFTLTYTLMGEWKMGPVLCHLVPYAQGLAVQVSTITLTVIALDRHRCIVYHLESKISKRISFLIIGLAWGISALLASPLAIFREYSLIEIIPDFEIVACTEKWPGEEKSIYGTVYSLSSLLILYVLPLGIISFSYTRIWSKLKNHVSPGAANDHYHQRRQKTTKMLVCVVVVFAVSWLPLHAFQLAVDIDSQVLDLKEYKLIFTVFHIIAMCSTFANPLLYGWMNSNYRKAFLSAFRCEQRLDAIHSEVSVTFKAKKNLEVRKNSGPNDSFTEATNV
Summary of the method: (§1)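 HEK-293 cells co-expressing GLP-1 or NPY2 receptor and CHO cells expressing GIP receptor, each carrying a CRE-driven luciferase reporter, were stimulated with peptides for 4 hours at 37 °C. Luminescence was read after Bright-Glo addition. EC50 came from 8-point, four-decade curves fitted by variable-slope non-linear regression.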

[2] = molecular target: T2, hGLP1R (Homo sapiens, UniProt P43220); assay: hGLP1R CreLuc reporter gene assay in 0.5% and 100% plasma
T2 construct: expressed in transfected cells; host or cells: HEK-293 cells carrying a CRE-luciferase reporter gene
T2 sequence (P43220 24-463): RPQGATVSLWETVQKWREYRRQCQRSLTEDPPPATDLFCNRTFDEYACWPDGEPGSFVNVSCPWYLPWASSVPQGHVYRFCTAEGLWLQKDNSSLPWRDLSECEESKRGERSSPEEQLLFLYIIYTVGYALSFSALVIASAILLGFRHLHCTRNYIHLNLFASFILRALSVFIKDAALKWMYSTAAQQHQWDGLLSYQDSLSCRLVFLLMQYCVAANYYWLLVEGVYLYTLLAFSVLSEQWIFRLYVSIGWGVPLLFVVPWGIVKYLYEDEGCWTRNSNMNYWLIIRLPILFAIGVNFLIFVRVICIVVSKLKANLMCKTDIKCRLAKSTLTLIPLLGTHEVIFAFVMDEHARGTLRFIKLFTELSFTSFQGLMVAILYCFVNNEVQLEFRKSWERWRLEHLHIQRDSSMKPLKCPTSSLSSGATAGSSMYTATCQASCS
Summary of the method: as §1

[3] = molecular target: T3, hGIPR (Homo sapiens, UniProt P48546); assay: hGIPR CreLuc reporter gene assay in 0.5% and 100% plasma
T3 construct: expressed in transfected cells; host or cells: CHO cells carrying a CRE-luciferase reporter gene
T3 sequence (P48546 22-466): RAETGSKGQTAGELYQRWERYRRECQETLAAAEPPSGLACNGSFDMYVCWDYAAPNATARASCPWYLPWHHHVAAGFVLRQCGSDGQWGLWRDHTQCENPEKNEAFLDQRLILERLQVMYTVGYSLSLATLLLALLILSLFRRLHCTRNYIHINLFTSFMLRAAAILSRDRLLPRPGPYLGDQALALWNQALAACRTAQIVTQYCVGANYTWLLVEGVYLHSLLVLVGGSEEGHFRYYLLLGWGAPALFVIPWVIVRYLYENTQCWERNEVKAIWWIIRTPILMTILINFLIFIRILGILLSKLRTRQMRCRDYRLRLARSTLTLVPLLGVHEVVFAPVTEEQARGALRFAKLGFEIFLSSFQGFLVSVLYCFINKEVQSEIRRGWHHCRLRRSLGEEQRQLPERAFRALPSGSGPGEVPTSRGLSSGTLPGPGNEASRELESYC
Summary of the method: as §1

[4] = 0.5% human plasma, read-out: hNPY2R 0.5% hP
[5] = 0.5% human plasma, read-out: hGLP1R 0.5% hP
[6] = 100% human plasma, read-out: hGLP1R 100% hP
[7] = 0.5% human plasma, read-out: hGIPR 0.5% hP
[8] = 100% human plasma, read-out: hGIPR 100% hP
[9] = 100% human plasma, read-out: hNPY2R 100% hP

Substance | EC50 [1, 4] | EC50 [2, 5] | EC50 [2, 6] | EC50 [3, 7] | EC50 [3, 8] | EC50 [1, 9]
H-Y[Aib]EGTFTSDYSI[Aib]LEKQAQ[Aib]EFVQWLIK([γGlu-γGlu-γGlu-γGlu-C20 diacid])GGPSEGASLRHYYNWLTRQRY-NH2 [Compound 194, Y-Aib-E-G-T-F-T-S-D-Y-S-I-Aib-L-E-K-Q-A-Q-Aib-E-F-V-Q-W-L-I-K(1,3)-GGPSEGASLRHYYNWLTRQRY-NH2.C20DA-gGlu-gGlu-gGlu-gGlu(1,2)] | 13.8 nM | 0.29 nM | 14.2 nM | 0.2 nM | 1.83 nM | –
H-Y[Aib]EGTFTSDYSI[Aib]LEKQAQ[Aib]EFVQWLIK([γGlu-γGlu-γGlu-γGlu-γGlu-γGlu-C18 diacid])GGPSEGASLRHYYNWLTRQRY-NH2 [Compound 151, Y-Aib-E-G-T-F-T-S-D-Y-S-I-Aib-L-E-K-Q-A-Q-Aib-E-F-V-Q-W-L-I-K(1,3)-GGPSEGASLRHYYNWLTRQRY-NH2.C18DA-gGlu-gGlu-gGlu-gGlu-gGlu-gGlu(1,2)] | 18.9 nM | 0.26 nM | 4.39 nM | 0.91 nM | – | –
H-Y[Aib]EGTFTSDYSI[Aib]LEKQAQ[Aib]EFVQWLIK([γGlu-γGlu-γGlu-γGlu-γGlu-γGlu-C20 diacid])GGPSEGASLRHYYNWLTRQRY-NH2 [Compound 185, Y-Aib-E-G-T-F-T-S-D-Y-S-I-Aib-L-E-K-Q-A-Q-Aib-E-F-V-Q-W-L-I-K(1,3)-GGPSEGASLRHYYNWLTRQRY-NH2.C20DA-gGlu-gGlu-gGlu-gGlu-gGlu-gGlu(1,2)] | 13.3 nM | 0.4 nM | – | 0.33 nM | – | –
H-Y[Aib]EGTFTSDYSI[Aib]LEKQAQ[Aib]EFVQWLIK([εLys-γGlu-γGlu-γGlu-γGlu-γGlu-γGlu-C18 diacid])GGPSEGASLRHYYNWLTRQRY-NH2 [Compound 153, Y-Aib-E-G-T-F-T-S-D-Y-S-I-Aib-L-E-K-Q-A-Q-Aib-E-F-V-Q-W-L-I-K(1,3)-GGPSEGASLRHYYNWLTRQRY-NH2.C18DA-gGlu-gGlu-gGlu-gGlu-gGlu-gGlu-eLys(1,2)] | 18.9 nM | 0.25 nM | – | 0.22 nM | 1.21 nM | 58.5 nM
H-Y[Aib]EGTFTSDYSI[Aib]LELQAQ[Aib]AFVEWLIK([εLys-γGlu-γGlu-γGlu-γGlu-γGlu-γGlu-C20 diacid])GGPSSGASLRHYYNWLTRQRY-NH2 [Compound 209, Y-Aib-E-G-T-F-T-S-D-Y-S-I-Aib-L-E-L-Q-A-Q-Aib-A-F-V-E-W-L-I-K(1,3)-GGPSSGASLRHYYNWLTRQRY-NH2.C20DA-gGlu-gGlu-gGlu-gGlu-gGlu-gGlu-eLys(1,2)] | 35.2 nM | 0.48 nM | 16.7 nM | 0.81 nM | – | –
H-Y[Aib]EGTFTSDYSI[Aib]LERQAQ[Aib]AFVEWLIK([εLys-γGlu-γGlu-γGlu-γGlu-γGlu-γGlu-C20 diacid])GGPSSGASLRHYYNWLTRQRY-NH2 [Compound 131, Y-Aib-E-G-T-F-T-S-D-Y-S-I-Aib-L-E-R-Q-A-Q-Aib-A-F-V-E-W-L-I-K(1,3)-GGPSSGASLRHYYNWLTRQRY-NH2.C20DA-gGlu-gGlu-gGlu-gGlu-gGlu-gGlu-eLys(1,2)] | 18.2 nM | 0.11 nM | – | 0.35 nM | 2.94 nM | –
H-Y[Aib]EGTFTSDYSI[Aib]LESQAQ[Aib]AFVEWLIK([εLys-γGlu-γGlu-γGlu-γGlu-γGlu-γGlu-C20 diacid])GGPSSGASLRHYYNWLTRQRY-NH2 [Compound 121, Y-Aib-E-G-T-F-T-S-D-Y-S-I-Aib-L-E-S-Q-A-Q-Aib-A-F-V-E-W-L-I-K(1,3)-GGPSSGASLRHYYNWLTRQRY-NH2.C20DA-gGlu-gGlu-gGlu-gGlu-gGlu-gGlu-eLys(1,2)] | 23.8 nM | 0.18 nM | – | 0.65 nM | – | –
I: H-Y[Aib]EGTFTSDYSI[Aib]LEKQAQ[Aib]AFVQWLIKGGPEEGASLRHYYNWLTRQRY-NH2 / II: {C18 diacid}-EEEEE[εLys] (amide I:28-II:C) [Compound 155, Y-Aib-E-G-T-F-T-S-D-Y-S-I-Aib-L-E-K-Q-A-Q-Aib-A-F-V-Q-W-L-I-K(1,3)-GGPEEGASLRHYYNWLTRQRY-NH2.C18DA-E-E-E-E-E-eLys(1,2)] | 17 nM | 0.15 nM | 7.18 nM | 0.14 nM | 1.43 nM | –
I: H-Y[Aib]EGTFTSDYSI[Aib]LEKQAQ[Aib]AFVQWLIKGGPESGASLRHYYNWLTRQRY-NH2 / II: {C18 diacid}-EEEEE[εLys] (amide I:28-II:C) [Compound 63, Y-Aib-E-G-T-F-T-S-D-Y-S-I-Aib-L-E-K-Q-A-Q-Aib-A-F-V-Q-W-L-I-K(1,3)-GGPESGASLRHYYNWLTRQRY-NH2.C18DA-E-E-E-E-E-eLys(1,2)] | 15.2 nM | 0.08 nM | – | 0.13 nM | 0.89 nM | –
I: H-Y[Aib]EGTFTSDYSI[Aib]LEKQAQ[Aib]AFVQWLIKGGPSEGASLRHYYNWLTRQRY-NH2 / II: {C18 diacid}-EEEEEE (amide I:28-II:C) [Compound 264, Y-Aib-E-G-T-F-T-S-D-Y-S-I-Aib-L-E-K-Q-A-Q-Aib-A-F-V-Q-W-L-I-K(1,3)-GGPSEGASLRHYYNWLTRQRY-NH2.C18DA-E-E-E-E-E-E(1,2)] | 16.7 nM | 0.11 nM | 3.95 nM | 0.28 nM | 1.82 nM | –

Now from value to substance:

EC50 [1, 4] | EC50 [2, 5] | EC50 [2, 6] | EC50 [3, 7] | EC50 [3, 8] | EC50 [1, 9] | Substance
12.9 nM | 0.21 nM | 10.4 nM | 0.26 nM | 1.81 nM | – | H-Y[Aib]EGTFTSDYSI[Aib]LEKQAQ[Aib]EFVQWLIK([γGlu-γGlu-γGlu-γGlu-C18 diacid])GGPSEGASLRHYYNWLTRQRY-NH2 [Compound 202, Y-Aib-E-G-T-F-T-S-D-Y-S-I-Aib-L-E-K-Q-A-Q-Aib-E-F-V-Q-W-L-I-K(1,3)-GGPSEGASLRHYYNWLTRQRY-NH2.C18DA-gGlu-gGlu-gGlu-gGlu(1,2)]
11.8 nM | 0.25 nM | – | 0.4 nM | – | 35.3 nM | H-Y[Aib]EGTFTSDYSI[Aib]LEKQAQ[Aib]EFVQWLIK([γGlu-γGlu-γGlu-γGlu-γGlu-C18 diacid])GGPSEGASLRHYYNWLTRQRY-NH2 [Compound 141, Y-Aib-E-G-T-F-T-S-D-Y-S-I-Aib-L-E-K-Q-A-Q-Aib-E-F-V-Q-W-L-I-K(1,3)-GGPSEGASLRHYYNWLTRQRY-NH2.C18DA-gGlu-gGlu-gGlu-gGlu-gGlu(1,2)]
10.7 nM | 0.26 nM | – | 0.4 nM | 1.07 nM | – | H-Y[Aib]EGTFTSDYSI[Aib]LEKQAQ[Aib]EFVQWLIK([εLys-γGlu-γGlu-γGlu-γGlu-γGlu-C18 diacid])GGPSEGASLRHYYNWLTRQRY-NH2 [Compound 154, Y-Aib-E-G-T-F-T-S-D-Y-S-I-Aib-L-E-K-Q-A-Q-Aib-E-F-V-Q-W-L-I-K(1,3)-GGPSEGASLRHYYNWLTRQRY-NH2.C18DA-gGlu-gGlu-gGlu-gGlu-gGlu-eLys(1,2)]
13.1 nM | 0.41 nM | – | 0.64 nM | 1.97 nM | 21.1 nM | H-Y[Aib]EGTFTSDYSI[Aib]LEKQAQ[Aib]EFVQWLIK([εLys-γGlu-γGlu-γGlu-γGlu-γGlu-γGlu-γGlu-C20 diacid])GGPSSGASLRHYYNWLTRQRY-NH2 [Compound 43, Y-Aib-E-G-T-F-T-S-D-Y-S-I-Aib-L-E-K-Q-A-Q-Aib-E-F-V-Q-W-L-I-K(1,3)-GGPSSGASLRHYYNWLTRQRY-NH2.C20DA-gGlu-gGlu-gGlu-gGlu-gGlu-gGlu-gGlu-eLys(1,2)]
10.7 nM | 0.14 nM | 6.74 nM | 0.33 nM | 1.97 nM | – | I: Y[Aib]EGTFTSDYSI[Aib]LEKQAQ[Aib]AFVQWLIKGGPSEGASLRHYYNWLTRQRY-NH2 / II: {C20 diacid}-EEEEE[εLys] (amide I:28-II:C) [Compound 240, Y-Aib-E-G-T-F-T-S-D-Y-S-I-Aib-L-E-K-Q-A-Q-Aib-A-F-V-Q-W-L-I-K(1,3)-GGPSEGASLRHYYNWLTRQRY-NH2.C20DA-E-E-E-E-E-eLys(1,2)]
